The structures appear in SMILES notation. pIC50: −log10 of the molar value.

In one assay the test system is asymmetric di-methyl PABP1 in RKO cells. Kind of assay: In Cell Western (ICW) for asymmetric di-methyl PABP1 and DNA content in RKO cells. In kind it is cell-based. The settings on record: 48 hours. In short, it runs like this: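 RKO cells treated with compound for 48 h at 37 °C, then fixed, methanol-permeabilized and stained for asymmetric di-methyl PABP1 (800 nm) with DRAQ5 DNA stain (700 nm). Signal ratio normalized to DMSO and 20 μM reference-compound controls. IC50 from nine 3-fold dilutions in triplicate.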
The compound `Cc1cc(C)c(CNC(=O)c2cc(-c3cccc(CN(C)CCN)c3)nc3c2cnn3C(C)C)c(=O)[nH]1` [Compound 360] gave a negative logarithm of the IC50 (pIC50) of 6.03.

`CNCCN(C)Cc1cccc(-c2cc(C(=O)NCc3c(C)cc(C)[nH]c3=O)c(C)c3[nH]ncc23)c1` [Compound 372] had a negative-log IC50 (pIC50) of at most 4.70.

Consider `CNCCN(C)Cc1cccc(-c2cc(C(=O)NCc3c(C)cc(C)[nH]c3=O)c3cnn(C(C)C)c3n2)c1` [Compound 368], for which the pIC50 is 6.00.

In turn, `CNCCN(C)Cc1cccc(-c2cc(C(=O)NCc3c(C)cc(C)[nH]c3=O)c3cnn(C(C)C)c3c2)c1` [Compound 367] gave a pIC50 of 5.19.

Still in this assay, the particulars now being: Homo sapiens, RKO, 48 h.
`CNCCN(C)Cc1ccc(-c2cc(C(=O)NCc3c(C)cc(C)[nH]c3=O)c(C)c3n[nH]cc23)cc1` [Compound 362] showed a pIC50 of at most 4.70.

Still in this assay, the particulars now being: Homo sapiens, RKO, In Cell Western.
Consider `CNCCN(C)Cc1cccc(-c2nc(C(=O)NCc3cn4ccsc4n3)c3cnn(C4CC4)c3n2)c1` [Compound 180], for which the pIC50 was 6.05.

Compound `CNCCN(C)Cc1cccc(-c2cc(C(=O)N(C)Cc3ccccn3)c3cnn(C(C)C)c3n2)c1` [Compound 300] gave a pIC50 of 5.20.

As to `CC(C)n1ncc2c(C(=O)N(C)CC3CCOCC3)cc(-c3cccc(CN(C)CCN)c3)nc21` [Compound 256], the pIC50 was 5.02.

Compound `CNCCN(C)Cc1cccc(-c2cc(C(=O)NCc3ccncc3)c3cnn(C(C)C)c3n2)c1` [Compound 182] gave a pIC50 of 5.45.

In turn, `CN(CCN)Cc1cccc(-c2ccc(C(=O)NCC3CCOCC3)c(N(C)CC3CC3)c2)c1` [Compound 263] had a pIC50 of 4.70.

These data come from patent publication US20170280720A1, “ARGININE […] INHIBITORS AND USES THEREOF” (EPIZYME, INC., priority 2014, published 2017).
